Where two headings read alike, the source gives them in different places. Blank lines part the entries; values can stand above or below the compound they belong to.
Experiments:
[1] = In vitro drug release from hydrogels; assay type: physicochemical
Method: Doxorubin release profiles of the foregoing compositions were tested.
Also compared was the cumulative release percentage of doxil and doxorubicin.
The in vitro release of acriflavine also was tested. An injectable hydrogel formulation (75% oxidized dextran, 12.5% w/v; PAMAM dendrimer, 15% w/v, pH 9.2) was prepared with four different loading concentrations (0.625 mg, 1.25 mg, 2.5 mg, and 5 mg, each of which had been previously injected locally in the brain).

CT-2A = assay: Potency (cell viability v. concentration) against GBM cell line CT-2A; assay type: cell-based
Method: (§1) The potencies of several therapies again GBM cells lines were measured.
(§2) FIG. 3 depicts a plot of cell viability v. concentration of each of the therapies listed in the foregoing table.

GL261 = assay: Potency (cell viability v. concentration) against GBM cell line GL261; assay type: cell-based
Method: as §1, §2

GBM spheroids = assay: Elimination of GBM spheroids in vitro; assay type: cell-based; conditions: compared with other tested chemotherapies
Source text: The other tested chemotherapies, however, may be used in the methods and compositions described herein.

GBM cells = assay: Calreticulin surface expression and HMGB1 excretion of GBM cells
[2] = Mus musculus, GL261, read-out: IC50 in GL261

Compound: Acriflavine
activity upon release ([1]; released from hydrogel): retained its activity upon release | IC50 (CT-2A; read-out: IC50 in CT-2A): 7.3 µM | IC50 (GL261; read-out: IC50 in GL261): 2.7 µM

Compound: CCc1c2c(nc3ccc(OC(=O)N4CCC(N5CCCCC5)CC4)cc13)-c1cc3c(c(=O)n1C2)COC(=O)[C@]3(O)CC [Irinotecan]
IC50 (CT-2A; read-out: IC50 in CT-2A): 150 µM | IC50 (GL261; [2]): 107 µM

cumulative percentage released, doxorubicin compared with doxil ([1]; over 200 hours, FIG. 11): greater cumulative percentage
Compound: COc1cccc2c1C(=O)c1c(O)c3c(c(O)c1C2=O)C[C@@](O)(C(=O)CO)C[C@@H]3O[C@H]1C[C@H](N)[C@H](O)[C@H](C)O1 [Doxorubicin]
elimination of GBM spheroids (GBM spheroids): more potently eliminated GBM spheroids in vitro than other tested chemotherapies | surface expression of calreticulin (GBM cells; FIG. 42, FIG. 43): increase the surface expression of calreticulin | HMGB1 excretion (GBM cells; at relevant concentrations): did not impact HMGB1 excretion at relevant concentrations | IC50 (CT-2A; comparative testing doxil v. doxorubicin, FIG. 20A/20B, read-out: potency from cell viabilities, CT-2A (quantity not named)): 0.17 µM | IC50 (CT-2A; read-out: IC50 in CT-2A): 0.1 µM | IC50 (GL261; Mus musculus, GL261, comparative testing doxil v. doxorubicin, FIG. 20A/20B, read-out: potency from cell viabilities, GL261 (quantity not named)): 0.83 µM | IC50 (GL261; [2]): 0.8 µM

Compound: O=NN(CCCl)C(=O)NCCCl [Carmustine (BCNU), Carmustine]
IC50 (CT-2A; read-out: IC50 in CT-2A): 156 µM | IC50 (GL261; [2]): 146 µM

Compound: Cn1nnc2c(C(N)=O)ncn2c1=O [Temozolomide]
IC50 (CT-2A; read-out: IC50 in CT-2A): > 750 µM | IC50 (GL261; [2]): > 750 µM
